Results reported in patent publication US20140309184A1, “METHODS AND COMPOSITIONS FOR THE TREATMENT OF OVARIAN CANCER” (UNIVERSITY OF SOUTH ALABAMA, priority 2011, published 2014).

Legend:
SKOV3 cells = experiment: MTS cell survival with BMS-833923 plus chemotherapy, Calcusyn combination index; assay type: cell-based
Description: An MTS in vitro assay was performed using chemotherapy agents commonly used for ovarian cancer (carboplatin, paclitaxel, gemcitabine, topotecan and liposomal doxorubicin) with or without BMS-833923. Ovarian cancer cells ES2, SKOV3, OV90 and TOV112D were seeded at a density of 4,000 cells/well in 96-well tissue culture plates. The following day, fresh medium was added to each well and treated with IC50 concentrations of BMS-833923 as well as the aforementioned chemotherapies and kept at 37° C. in a humidified 5% CO2 atmosphere. Every 24 hr, 20 μl/well of MTS reagent were added in 96 well plates and stored in 37° C. incubator for about 3 hr followed by absorbance reading at 490 nm. The assay was carried out up to 72 hrs at various concentrations described herein.
With a cross-diagonal multidrug treatment design, the combination index (CI) was calculated to determine mathematical synergy using the median effect method per Calcusyn software (Biosoft, Ferguson, Mo.). This software utilizes multiple drug dose-effect calculations using the Median Effect methods (Chou T. C., et al., Trends Pharmacol. Sci. 4, 450-454). […] The fraction of cells affected (Fa) by carboplatin and BMS-833923 was used to calculate dose response curves and the CI. Statistically Calcusyn quantifies phenomena such as synergism vs. additive effects as well as inhibition (antagonism). Calcusyn software defines synergy as a CI value<1 with the extent of synergism stratified as follows: Possible Synergy: 1.0-0.91; Moderate Synergy: […]; and Clear Synergy: 0.7-0.3. A CI=1 may be indicative of additivity; a CI>1 may be indicative of antagonism.
Combination indices were calculated to determine mathematical synergy using the median effect method per Calcusyn software (Biosoft, Ferguson, Mo.) as described above. Monolayers of SKOV3 cells were contacted with various chemotherapeutic agents, and BMS-833923 in combination with various chemotherapeutic agents. The chemotherapeutic agents included Carboplatin, Taxol™, Gemzar™, Topotecan (Hycamtim™), and Doxil™. The percentage survival of the contacted SKOV3 cells was measured over 72 hours. Synergistic effects were calculated statistically using Calcusyn™ Software. A combination index (CI) less than 1 indicates synergy; a CI equal to 1 indicates additivity; a CI greater than 1 indicated antagonism.
Combination indices were calculated to determine mathematical synergy using the median effect method per Calcusyn software (Biosoft, Ferguson, Mo.) as described above. […] Per prior definitions this represents Clear Synergy defined as CI<0.7. This level of synergy would result in a 2- to 14-fold reduction of carboplatin dose required with the addition of BMS-833923. (Table 5 and FIG. 9).
The dose reduction index (DRI) was determined for experimental values using the Calcusyn software package, with the relative CI and the fraction affected to determine the relative reduction in a dose to achieve similar effects with a single agent (Table 6).

A2780 cells = experiment: Carboplatin IC50 in platinum sensitive cell line; assay type: cell-based; settings: read-out: IC50 dose of carboplatin
Description: (§1) Considering the synergy described above and that the Hedgehog pathway is associated with cancer stem cell properties. In the effect of BMS-833923 plus carboplatin in two isogenic ovarian cancer cell lines specifically designed to evaluate platinum resistance mechanisms: A2780 (platinum sensitive) & A2780/CP70 (platinum resistant). Each cell line was evaluated to determine the IC50 dose of carboplatin to ensure a discernable difference in platinum treatment could be determined (FIG. 11A). The A2780/CP70 cell line required a 4-fold increase in carboplatin to reach IC50 (A2780/CP70=400 μM; A2780=100 μM). […] (FIG. 11B and FIG. 11C).

A2780/CP70 cells = experiment: Carboplatin IC50 with and without BMS-833923 in platinum resistant cell line; assay type: cell-based
Description: as §1

A2780 xenografts = experiment: Xenograft tumor growth, carboplatin-sensitive model; assay type: in vivo; settings: SCID mice; BMS-833923 100 mg/kg i.p. daily, Carboplatin 40 mg/kg i.p. twice a week, two weeks
Description: (§2) Female SCID mice 6-8 weeks old were inoculated i.p. with 5×10^6 A2780 or A2780/CP70 cells suspended in 200 μL PBS (PH 7.4). Seven days later when the tumor reached a size of greater than 150 mm^3, the mice were randomly divided into 4 groups (8 mice per group) as follows: (1) PBS-treated control; (2) BMS-833923 alone (100 mg/kg, i.p. daily, two weeks); (3) Carboplatin alone (40 mg/kg, i.p. twice a week, two weeks); (4) Combination of BMS-833923 and Carboplatin treatment. Mice were weighed and tumor diameters were measured with calipers every 2-3 days for 20 days. The tumor volumes (mm^3) were calculated as (W^2×L)/2, where W and L are the minor and major diameters (in millimeters), respectively.
(§3) Xenograft experiments were performed as described above. Carboplatin was dosed days 7, 11, 14, 18; BMS-833923 was dosed days 8 through 20. The experiment was terminated due to excessive tumor size in vehicle and BMS-833923 treatment groups.

CP2780 xenografts = experiment: Xenograft tumor growth, carboplatin-resistant model; assay type: in vivo; settings: SCID mice; BMS-833923 100 mg/kg i.p. daily, Carboplatin 40 mg/kg i.p. twice a week, two weeks
Description: as §2, §3
The CP2780 was derived from the A2780 Ovarian tumor xenograft model by selection for resistance to cisplatin. The CP2780 growth appeared to be more robust than observed for parental A2780 model (FIG. 12B). Average tumor volume doubling time for CP2780 was estimated at 2 days. Doubling time for parental A2780 tumor model was estimated at 3 days. […]

[1] = Percent body weight change in xenograft experiments; assay type: in vivo, SCID mice; settings: xenograft mice; BMS-833923 100 mg/kg i.p. daily, Carboplatin 40 mg/kg i.p. twice a week
Description: as §2
Xenograft experiments were performed as described above. […] However, under such dosage (100 mg/kg, i.p. daily, for two weeks), treatment with BMS-833923 appeared to have little effect on the growth of A2780 or A2780/CP70 xenografts in vivo (FIG. 13). […] However, this dosage has little effect on the growth of CP2780 xenografts in vivo.

[2] = MTD for combination therapy; assay type: in vivo; settings: BMS-833923 + carboplatin given together; previously demonstrated
Description: Treatment with BMS-833923 appeared to have little effect on the growth of A2780 xenografts in vivo.

SHH = experiment: Quantitative real time PCR in carboplatin treated SKOV3 cells; assay type: cell-based; settings: SKOV3, various concentrations of carboplatin
Description: SKOV3 cells were treated with various concentrations of carboplatin and the levels of SHH, Smo, PTCH, and Gli1 determined using quantitative real time PCR. Carboplatin treatment unregulated SHH (FIG. 14).

With `N.N.O=C([O-])C1(C(=O)[O-])CCC1.[Pt+2]` [Carboplatin, carboplatin] the “Carboplatin DRI” value (SKOV3 cells; fraction affected 16.6%) was 14.869, the “Carboplatin single agent dose to achieve the fraction affected” value (SKOV3 cells; fraction affected 16.6%) was 892.1349 µM and the “Carboplatin DRI” value (SKOV3 cells; fraction affected 29.1%) was 8.06e+006. For the same compound, the “Carboplatin single agent dose to achieve the fraction affected” value (SKOV3 cells; fraction affected 29.1%) was 5.642e+08 µM, the “Carboplatin DRI” value (SKOV3 cells; fraction affected 38.4%) was 2.07e+010 and the “Carboplatin single agent dose to achieve the fraction affected” value (SKOV3 cells; fraction affected 38.4%) was 1.243e+12 µM. For the same compound, the “Carboplatin DRI” value (SKOV3 cells; fraction affected 41.8%) was 2.45e+011, the “Carboplatin single agent dose to achieve the fraction affected” value (SKOV3 cells; fraction affected 41.8%) was 1.716e+13 µM and the IC50 (A2780 cells) was 100 µM. For the same compound, the “increase in carboplatin to reach IC50, A2780/CP70 versus A2780” value (A2780/CP70 cells) was 4 fold, the IC50 (A2780/CP70 cells; A2780/CP70 (platinum resistant), read-out: IC50 dose of carboplatin) was 400 µM and the “effect on growth of A2780 xenografts in vivo” value (A2780 xenografts) was “inhibited growth”. The “effect on growth of CP2780 (A2780/CP70) xenografts in vivo” value (CP2780 xenografts) was “little effect”, the “Percent body weight change” value [1] was “Combination<Carboplatin alone<BMS-833923 alone” and the “MTD for combination therapy” value [2] was 40 mg/kg. The “SHH mRNA level” value (SHH) was “unregulated”.
